Measurements as given in the SangsterLogP compilation.

Test: method code SF, from PMID: 3778562
`CCCCCCCCCCCCCCCCO[C@H]1Cc2c(O)cc(O)cc2O[C@@H]1c1ccc(O)c(O)c1` gave a logP of 8.87.
`O=C1C[C@@H](c2ccc(O)c(O)c2)Oc2cc(O)ccc21` gave a logP of 1.94.
`O=C(Nc1ccccc1)OC1Cc2c(O)cc(O)cc2OC1c1ccc(O)c(O)c1` (configuration not stated) showed a logP of 3.05.
Work on `O=c1cc(-c2ccc(O)c(O)c2)oc2cccc(O)c12` yielded a logP of 3.31.
For `Oc1cc(O)c2c(c1)OC(c1ccc(O)c(O)c1)C(O)C2O` (configuration not stated), the logP was 0.95.
For `O=C(O)CCC(=O)O[C@H]1Cc2c(O)cc(O)cc2O[C@@H]1c1ccc(O)c(O)c1`, the logP was 1.41.
Molecule `C[C@@H]1O[C@@H](O[C@H]2[C@H](Oc3cc(O)c4c(c3)O[C@H](c3ccc(O)cc3)CC4=O)O[C@H](CO)[C@@H](O)[C@@H]2O)[C@H](O)[C@H](O)[C@H]1O` has a logP of -0.44.
Work on `COc1ccc(-c2cc(=O)c3c(O)cc(O)cc3o2)cc1O` yielded a logP of 3.1.
Work on `COc1ccc(-c2oc3cc(O)cc(O)c3c(=O)c2O)cc1` yielded a logP of 3.97.
For `CCCO[C@H]1Cc2c(O)cc(O)cc2O[C@@H]1c1ccc(O)c(O)c1`, the logP was 2.12.
For `CCCCCCCCCCCCCCCC(=O)O[C@H]1Cc2c(O)cc(O)cc2O[C@@H]1c1ccc(O)c(O)c1`, the logP was 8.7.
`COc1cc(OC)c2c(c1)OC(c1ccc(OC)c(OC)c1)C(OC)C2` (configuration not stated) gave a logP of 3.68.
With `O=C1C[C@@H](c2ccc(O)c(O)c2)Oc2cccc(O)c21` the logP was 2.81.
With `Cc1cc(C)c2c(c1)O[C@H](c1ccc(C)c(C)c1)[C@@H](O)C2` the logP was 3.1.
Work on `CO[C@H]1Cc2c(O)cc(O)cc2O[C@@H]1c1ccc(O)c(O)c1` yielded a logP of 1.
For `NCCCOC1Cc2c(O)cc(O)cc2OC1c1ccc(O)c(O)c1` (configuration not stated), the logP was 0.52.
In the case of `C[C@@H]1O[C@@H](Oc2c(-c3ccc(O)c(O)c3)oc3cc(O)cc(O)c3c2=O)[C@H](O)[C@H](O)[C@H]1O`, the logP is reported as 1.78.
`CCCCCCCO[C@H]1Cc2c(O)cc(O)cc2O[C@@H]1c1ccc(O)c(O)c1` showed a logP of 4.2.
Molecule `O=c1cc(-c2ccc(O)cc2)oc2cc(O)cc(O)c12` has a logP of 3.02.
With `COc1ccc(-c2cc(=O)c3c(O)cc(O[C@@H]4O[C@H](CO[C@@H]5O[C@@H](C)[C@H](O)[C@@H](O)[C@H]5O)[C@@H](O)[C@H](O)[C@H]4O)cc3o2)cc1O` the logP was 0.14.
In the case of `CCCCCCCCCC(=O)O[C@H]1Cc2c(O)cc(O)cc2O[C@@H]1c1ccc(O)c(O)c1`, the logP is reported as 5.58.
In the case of `O=C(OC1Cc2c(O)cc(O)cc2OC1c1ccc(O)c(O)c1)c1ccc(O)c(O)c1` (configuration not stated), the logP is reported as 2.45.
`CCCCO[C@H]1Cc2c(O)cc(O)cc2O[C@@H]1c1ccc(O)c(O)c1` gave a logP of 2.64.
`O=C(O[C@H]1Cc2c(O)cc(O)cc2O[C@@H]1c1ccc(O)c(O)c1)c1ccc(F)cc1` gave a logP of 3.64.
In the case of `O=c1c(O)c(-c2cccc(O)c2)oc2cc(O)ccc12`, the logP is reported as 2.51.
Molecule `COc1ccc(-c2oc3ccccc3c(=O)c2O)cc1OC` has a logP of 4.17.
`O=c1cc(-c2ccc(O)c(O)c2)oc2cc(O)ccc12` showed a logP of 1.94.
`O=c1c(O)c(-c2ccc(O)cc2O)oc2cc(O)cc(O)c12` showed a logP of 2.61.
`O=C(O[C@H]1Cc2c(O)cc(O)cc2O[C@@H]1c1ccc(O)c(O)c1)c1ccccc1` gave a logP of 3.44.
Work on `Oc1cc(O)c2c(c1)O[C@@H](c1ccc(O)c(O)c1)C(OCO[C@@H]1Cc3c(O)cc(O)cc3O[C@H]1c1ccc(O)c(O)c1)C2` (some centres not stated) yielded a logP of 2.15.
Molecule `O=C1C[C@@H](c2ccc(O)cc2)Oc2cc(O[C@H]3O[C@@H](CO)[C@H](O)[C@@H](O)[C@@H]3O)cc(O)c21` has a logP of -0.44.
With `O=c1c(O)c(-c2ccc(O)cc2)oc2cc(O)cc(O)c12` the logP was 3.39.
For `CCCCCCCCCCCCCCCCCCO[C@H]1Cc2c(O)cc(O)cc2O[C@@H]1c1ccc(O)c(O)c1`, the logP was 9.91.
Molecule `Oc1cc(O)c2c(c1)OC(c1ccc(O)c(O)c1)C(OCCCc1ccccc1)C2` (configuration not stated) has a logP of 3.78.
In the case of `CCCCCCCCCCCCO[C@H]1Cc2c(O)cc(O)cc2O[C@@H]1c1ccc(O)c(O)c1`, the logP is reported as 6.79.
For `CCCC(=O)O[C@H]1Cc2c(O)cc(O)cc2O[C@@H]1c1ccc(O)c(O)c1`, the logP was 2.47.
With `O=C1CC(c2ccc(O)cc2)Oc2cc(O)cc(O)c21` (stereo in doubt) the logP was 2.52.
Work on `O=C1C[C@@H](c2ccc(O)c(O)c2)Oc2cc(O)cc(O)c21` yielded a logP of 2.02.
In the case of `O=c1cc(-c2ccccc2)oc2cc(O)cc(O)c12`, the logP is reported as 3.52.
In the case of `COc1ccc([C@@H]2CC(=O)c3c(O)cc(O)cc3O2)cc1O`, the logP is reported as 2.6.
Work on `CC(=O)Oc1ccccc1C(=O)OC1Cc2c(O)cc(O)cc2OC1c1ccc(O)c(O)c1` (configuration not stated) yielded a logP of 2.87.
`O=C1C[C@@H](c2cccc(O)c2)Oc2cc(O)cc(O)c21` showed a logP of 2.51.
In the case of `O=C(Cc1ccccc1)O[C@H]1Cc2c(O)cc(O)cc2O[C@@H]1c1ccc(O)c(O)c1`, the logP is reported as 3.09.
For `COc1cc(OC)c2c(c1)O[C@H](c1ccc(OC)c(OC)c1)[C@@H](O)C2`, the logP was 3.1.
`O=c1c(O)c(-c2ccc(O)c(O)c2)oc2cc(O)ccc12` gave a logP of 2.53.
Work on `N#CCCO[C@H]1Cc2c(O)cc(O)cc2O[C@@H]1c1ccc(O)c(O)c1` yielded a logP of 0.96.
For `O=c1c(O)c(-c2ccc(O)cc2)oc2cc(O)ccc12`, the logP was 3.02.
